# Test results from ChEMBL document CHEMBL2417371, “Herbimycins D-F, ansamycin analogues from Streptomyces sp. RM-7-15” (J Nat Prod, 2013).
# Test system: A549
# Experiment: Cytotoxicity against human A549 cells after 2 days by AlamarBlue assay
# Conditions: A549, 48 h
structure (smiles),measurement,value
COC1=C2C[C@@H](C)C[C@H](OC)[C@H](O)[C@@H](C)/C=C(\C)[C@H](OC(N)=O)[C@@H](OC)/C=C\C=C(/C)C(=O)NC(=CC1=O)C2=O [GELDANAMYCIN],IC50,0.15 µM
CO[C@H]1[C@@H](OC)C[C@H](C)[C@@H](OC)C2=CC(=O)C=C(NC(=O)/C(C)=C/C=C/[C@H](OC)[C@@H](OC(N)=O)/C(C)=C/[C@@H]1C)C2=O [HERBIMYCIN],IC50,0.15 µM
